These results are taken from ChEMBL document CHEMBL1126423, “Acid-catalyzed O-allylation of -hydroxy--amino acids: an entry into conformationally constrained dipeptide surrogates” (Bioorg Med Chem Lett, 1992).

This experiment deals with T1, Angiotensin-converting enzyme (Oryctolagus cuniculus, UniProt P12822).
T1 sequence (P12822 whole entry): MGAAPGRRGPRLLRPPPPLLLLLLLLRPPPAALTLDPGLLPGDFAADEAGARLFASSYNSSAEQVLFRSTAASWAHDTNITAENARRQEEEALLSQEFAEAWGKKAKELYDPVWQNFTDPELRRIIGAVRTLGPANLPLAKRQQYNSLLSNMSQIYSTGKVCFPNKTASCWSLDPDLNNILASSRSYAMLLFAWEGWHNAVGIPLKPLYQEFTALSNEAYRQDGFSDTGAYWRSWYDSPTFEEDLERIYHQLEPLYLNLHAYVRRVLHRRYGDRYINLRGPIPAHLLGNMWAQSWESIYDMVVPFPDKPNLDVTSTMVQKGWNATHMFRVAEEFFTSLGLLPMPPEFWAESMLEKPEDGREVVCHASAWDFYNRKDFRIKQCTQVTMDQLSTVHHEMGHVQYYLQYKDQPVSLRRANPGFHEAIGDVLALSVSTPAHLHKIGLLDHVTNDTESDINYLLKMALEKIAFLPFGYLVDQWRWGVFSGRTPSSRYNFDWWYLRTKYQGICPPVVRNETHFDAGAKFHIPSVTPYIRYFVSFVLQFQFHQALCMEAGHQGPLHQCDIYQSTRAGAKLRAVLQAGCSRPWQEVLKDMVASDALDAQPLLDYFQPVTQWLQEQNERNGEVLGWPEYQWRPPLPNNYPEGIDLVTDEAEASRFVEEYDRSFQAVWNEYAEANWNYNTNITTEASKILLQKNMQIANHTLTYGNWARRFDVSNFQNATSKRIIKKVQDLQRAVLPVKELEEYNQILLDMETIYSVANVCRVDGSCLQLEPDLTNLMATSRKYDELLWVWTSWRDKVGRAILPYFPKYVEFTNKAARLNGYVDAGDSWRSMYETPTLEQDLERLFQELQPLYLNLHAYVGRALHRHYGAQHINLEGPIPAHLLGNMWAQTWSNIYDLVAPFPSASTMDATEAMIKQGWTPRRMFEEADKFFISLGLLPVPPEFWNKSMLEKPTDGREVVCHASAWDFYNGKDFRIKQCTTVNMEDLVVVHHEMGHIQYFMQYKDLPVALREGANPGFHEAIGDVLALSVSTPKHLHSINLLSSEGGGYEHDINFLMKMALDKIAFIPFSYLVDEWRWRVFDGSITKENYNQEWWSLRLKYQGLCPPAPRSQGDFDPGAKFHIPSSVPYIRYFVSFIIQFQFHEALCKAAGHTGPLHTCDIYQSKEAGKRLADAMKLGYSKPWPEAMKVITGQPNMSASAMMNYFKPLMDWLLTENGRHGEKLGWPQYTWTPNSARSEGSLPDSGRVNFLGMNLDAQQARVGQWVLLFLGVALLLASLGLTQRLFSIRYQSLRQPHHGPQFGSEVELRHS
Kind of experiment: Inhibitory concentration against rabbit lung Angiotensin I converting enzyme (ACE).

The structures appear in SMILES notation.

In general, IC50 refers to the concentration at which inhibition is half-maximal. Lower therefore signals higher potency. With `O=C(O)[C@H](CCc1ccccc1)NC1Cc2ccccc2C2COC[C@H](C(=O)O)N2C1=O` (stereo partly specified), the IC50 worked out at 0.09 nM.
